Values of other authors, collected in patent US20160128943A1, “CONTROLLED RELEASE CAFFEINE DOSAGE FORMS” (priority 2013, published 2016).

Legend:
[1] = system: central nervous system; conditions: after absorption

Cn1c(=O)c2c(ncn2C)n(C)c1=O [caffeine]
time to peak levels in the circulation of the bloodstream (after consumption): fifteen and forty-five
average half-life (average person, after ingestion): three and one half
time to maximum effect of central nervous system stimulation [1]: thirty and sixty
